From patent US20240391954A1, “MC4R AGONIST PEPTIDES” (The Regents of the University of Michigan, priority 2021, published 2024)
Like-named read-outs stand apart in the source and are kept apart here. Positions of bridges follow the written chain, without caps; N, C: chain ends. Non-standard residues stand in square brackets, D forms with d. Residues, ends and D or L forms follow the SMILES beside them. dPhe(4-Br) = N[C@H](Cc1ccc(Br)cc1)C(=O)O; dPhe(4-F) = N[C@H](Cc1ccc(F)cc1)C(=O)O; Cit = NC(=O)NCCC[C@H](N)C(=O)O; Nle = CCCC[C@H](N)C(=O)O; dAbu = CC[C@@H](N)C(=O)O; Aib = CC(C)(N)C(=O)O

Assays:
Mouse plasma stability = assay type: in vitro ADME; conditions: 37° C.; for half-life at 1 µM: pooled mouse plasma
Experimental: FIG. 3. Results of plasma stability testing for control peptides. Compounds shown were incubated in mouse plasma at 37° C. at 1 μM concentrations. 40 ul aliquots were removed at the times indicated and the reactions stopped with the addition of 160 μL cold acetonitrile containing 200 ng/ml of peptide internal standard (IS). The incubation solution was centrifuged at 3500 rpm for 10 minutes to precipitate protein. LC/MS/MS analysis was used to determine the % peptide remaining.
Pooled mouse plasma was prepared and stored at −80° C, prior to use, 396 μL mouse plasma was incubated at 37° C. for 5 minutes in 1.5 mL microcentrifuge tubes. 4 μL of 100 μM test or control compound/peptide was added to each tube and incubated for 0.5, 15, 30, 60, 120, or 240 minutes. An aliquot of 40 μL of each reaction was stopped by the addition of 4 volume of cold acetonitrile containing 200 ng/mL of […] solution was centrifuged at 3500 rpm for 10 minutes to precipitate protein. The supernatant was used for LC/MS/MS analysis. The natural log peak area ratio (compound peak area/internal standard peak area) was plotted against time and the gradient of the line determined.

human MC4R = target: T1, human MC4R (Homo sapiens, UniProt P32245); test: split-luciferase cAMP sensor assay, agonist mode (measurement window 1), hMC4R; assay type: cell-based; conditions: for Emax / EC50: agonist mode; for Emax: read-out: MC4R cAMP % max activation; for EC50: read-out: MC4R cAMP EC50
T1 construct: host or cells: HEK-293 cells stably expressing the GScAMP22F split-luciferase cAMP sensor and hMC4R, G418 selection
How it was run: (§1)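 EC50 values come from a four-parameter variable-slope fit of luminescence in measurement window 1, capturing direct peptide effects on receptor-expressing cells with a cAMP22f luciferase sensor. Cells were preloaded with 4% D-luciferin, serum-free medium; 20 μM forskolin normalized for cell number and transducer efficiency.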

human MC3R = target: T2, human MC3R (Homo sapiens, UniProt P41968); test: split-luciferase cAMP sensor assay, agonist mode (measurement window 1), hMC3R; assay type: cell-based; conditions: for Emax / EC50: agonist mode; for Emax: read-out: MC3R cAMP % max activation; for EC50: HEK-293 cells stably expressing hMC3R, read-out: MC3R cAMP EC50; for MC4R selectivity vs MC3R: MC4R versus MC3R
T2 construct: expressed in transfected cells; host or cells: HEK-293 cells stably expressing the GScAMP22F split-luciferase cAMP sensor (parent reporter line from Promega); MC3R clone generated in-house, G418 selection
How it was run: as §1

[1] = Plasma protein binding (Centrifree ultrafiltration); assay type: in vitro ADME
Experimental: Solutions of test compound in DMSO were prepared at 1 mM, 100 uM and 10 uM, 5 ul of each solution of test compound was added to 495 uL plasma, and incubated at 25° C. for 5 min. Sample was added to a Centrifree® device, then centrifuged at 2000× g for 20 min to obtain desired filtrate volume. Initial plasma samples and ultrafiltrates were subjected to LC-MS/MS. % Free peptide=(concentration of ultrafiltrates/concentration of plasma)×100%. % Bound=100%−% Free

human MC1R = target: T3, human MC1R (Homo sapiens, UniProt Q01726); test: split-luciferase cAMP sensor assay, agonist mode, hMC1R; assay type: cell-based; conditions: MC4R versus MC1R
T3 construct: expressed in transfected cells; host or cells: HEK-293 cells stably expressing hMC1R and the GScAMP22F cAMP sensor
How it was run: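 HEK-293 cells stably expressing hMC1R and the GScAMP22F split-luciferase cAMP sensor, preloaded 120 min at 37° C with D-luciferin in serum-free medium. Peptide responses were taken as peak luminescence over 2-13 min minus 2-min baseline, normalized to the α-MSH ECmax. EC50 was obtained from a four-parameter variable-slope fit.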

T3 sequence (Q01726 whole entry): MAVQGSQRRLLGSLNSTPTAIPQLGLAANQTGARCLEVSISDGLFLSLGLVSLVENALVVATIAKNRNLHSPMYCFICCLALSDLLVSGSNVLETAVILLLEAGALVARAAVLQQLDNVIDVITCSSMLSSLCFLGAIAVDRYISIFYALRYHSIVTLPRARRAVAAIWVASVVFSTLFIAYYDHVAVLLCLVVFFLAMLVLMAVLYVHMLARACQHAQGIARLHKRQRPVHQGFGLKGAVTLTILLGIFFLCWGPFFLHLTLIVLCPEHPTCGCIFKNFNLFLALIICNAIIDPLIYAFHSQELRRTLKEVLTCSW
T1 sequence (P32245 whole entry): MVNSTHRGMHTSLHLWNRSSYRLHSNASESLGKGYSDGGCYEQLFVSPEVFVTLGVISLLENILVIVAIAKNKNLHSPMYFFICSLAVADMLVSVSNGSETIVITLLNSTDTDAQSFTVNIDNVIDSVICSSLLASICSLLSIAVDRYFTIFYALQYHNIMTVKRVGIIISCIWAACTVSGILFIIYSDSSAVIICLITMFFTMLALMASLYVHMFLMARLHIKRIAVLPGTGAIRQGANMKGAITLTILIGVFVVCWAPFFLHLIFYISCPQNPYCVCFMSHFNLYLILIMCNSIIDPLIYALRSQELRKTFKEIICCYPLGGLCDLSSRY
T2 sequence (P41968 whole entry): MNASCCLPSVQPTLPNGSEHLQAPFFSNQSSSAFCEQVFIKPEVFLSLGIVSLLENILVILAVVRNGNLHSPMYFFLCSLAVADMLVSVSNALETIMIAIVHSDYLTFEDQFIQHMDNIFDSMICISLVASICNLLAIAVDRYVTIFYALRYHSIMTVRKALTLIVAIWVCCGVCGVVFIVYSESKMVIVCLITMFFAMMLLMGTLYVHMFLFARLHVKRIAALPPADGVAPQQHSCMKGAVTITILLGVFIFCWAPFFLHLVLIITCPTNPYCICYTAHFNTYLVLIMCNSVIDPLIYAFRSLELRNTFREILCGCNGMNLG

SMILES | MC4R selectivity vs MC1R (human MC4R) | MC4R selectivity vs MC3R (human MC4R) | Emax (human MC4R; hMC4R stable cell line) [%] | EC50 (human MC4R; hMC4R stable cell line) [nM] | Emax (human MC3R; hMC3R stable cell line) [%] | MC4R selectivity vs MC1R (human MC1R) | half-life at 1 µM (Mouse plasma stability) [h] | Emax (human MC4R; % maximal activation) [%] | Emax (human MC3R; % maximal activation) [%] | EC50 (human MC3R) [nM] | MC4R selectivity vs MC3R (human MC3R) | fraction unbound at 5 min, 0.1 µM ([1]; 0.1 uM) | fraction unbound at 5 min, 1 µM ([1]; 1.0 uM) | fraction unbound at 5 min, 10 µM ([1]; 10.0 uM) | further results
CC(=O)N[C@@H](CCCNC(=N)N)C(=O)N[C@H]1CSSC[C@@H](C(N)=O)NC(=O)[C@@H](Cc2c[nH]c3ccccc23)NC(=O)[C@H](CCCNC(=N)N)NC(=O)[C@@H](Cc2ccc(F)cc2)NC(=O)[C@H](CCCNC(=N)N)NC(=O)[C@@H](C)NC1=O [CTX-1236, Arg-cyclo(Cys-D-Ala-Arg-D-Phe(4-F)-Arg-D-Trp-Cys)] (Ac-RC[dA]R[dPhe(4-F)]R[dW]C-NH2; disulfide 2-8) | 2.01 | 1.36 | 97 | 1.9 | 66 |  |  |  |  |  |  |  |  |  | half-life (Mouse plasma stability): 3.78 h; fraction unbound at 0.1 uM ([1]; 0.1 uM): 0.55; fraction unbound ([1]; 1.0 uM, read-out: Protein Binding 1.0 uM (converted)): 0.51; fraction unbound ([1]; 10.0 uM, read-out: Protein Binding 10.0 uM (converted)): 0.49
CCCC[C@H](NC(=O)[C@H](CCCNC(=N)N)NC(C)=O)C(=O)N[C@H]1CSSC[C@@H](C(N)=O)NC(=O)[C@H](Cc2c[nH]c3ccccc23)NC(=O)[C@H](CCCNC(=N)N)NC(=O)[C@@H](Cc2ccccc2)NC(=O)[C@H](CCCNC(=N)N)NC1=O [CTX-1228, Arg-Nle-cyclo(Cys-Arg-D-Phe-Arg-Trp-Cys)] (Ac-R[Nle]CR[dF]RWC-NH2; disulfide 3-8 (inferred)) |  |  |  |  |  | 3.16 | 0.917 | 102 | 93 | 1.6 | 8.38 | 0.63 | 0.61 | 0.61 | 
COc1ccc(C[C@H]2NC(=O)[C@H](CCCNC(=N)N)NC(=O)[C@@H](C)NC(=O)[C@@H](NC(=O)[C@H](CCCNC(=N)N)NC(C)=O)CSSC[C@@H](C(N)=O)NC(=O)[C@@H](Cc3c[nH]c4ccccc34)NC(=O)[C@H](CCCNC(=N)N)NC2=O)cc1 [CTX-1238, Arg-cyclo(Cys-D-Ala-Arg-D-Tyr(O-Me)-Arg-D-Trp-Cys)] (Ac-RC[dA]R[dY](Me)R[dW]C-NH2; disulfide 2-8 (inferred)) | 0.44 | 0.49 | 79 |  | 21 |  | 2.87 |  |  |  |  | 0.47 | 0.53 | 0.59 | 
CC[C@H]1NC(=O)[C@@H](NC(=O)[C@H](CCCNC(=N)N)NC(C)=O)CSSC[C@@H](C(N)=O)NC(=O)[C@@H](Cc2c[nH]c3ccccc23)NC(=O)[C@H](CCCNC(=N)N)NC(=O)[C@@H](Cc2ccc(Br)cc2)NC(=O)[C@H](CCCNC(=N)N)NC1=O [CTX-1247, Arg-cyclo(Cys-D-Abu-Arg-D-Phe(4-Br)-Arg-D-Trp-Cys)] (Ac-RC[dAbu]R[dPhe(4-Br)]R[dW]C-NH2; disulfide 2-8 (inferred)) | 0.43 | 2.05 | 75 | 3.3 | 13 |  | 3.32 |  |  |  |  | 0.51 | 0.47 | 0.47 | 
CC(=O)N[C@@H](CCCNC(=N)N)C(=O)N[C@H]1CSSC[C@@H](C(N)=O)NC(=O)[C@H](Cc2ccccc2)NC(=O)[C@H](CCCNC(=N)N)NC(=O)[C@@H](Cc2ccc(Br)cc2)NC(=O)[C@H](CCCNC(=N)N)NC(=O)[C@@H](C)NC1=O [CTX-1258, Arg-cyclo(Cys-D-Ala-Arg-D-Phe(4-Br)-Arg-Phe-Cys)] (Ac-RC[dA]R[dPhe(4-Br)]RFC-NH2; disulfide 2-8) | 0.53 | 3.04 | 92 | 2.4 | 36 |  | > 4 |  |  |  |  | 0.53 | 0.5 | 0.5 | 
CC(=O)N[C@@H](CCCNC(=N)N)C(=O)N[C@H]1CSSC[C@@H](C(N)=O)NC(=O)[C@@H](Cc2c[nH]c3ccccc23)NC(=O)[C@H](CCCNC(=N)N)NC(=O)[C@@H](Cc2ccc(Br)cc2)NC(=O)[C@H](CCCNC(=N)N)NC(=O)C(C)(C)NC1=O [CTX-1246, Arg-cyclo(Cys-Aib-Arg-D-Phe(4-Br)-Arg-D-Trp-Cys)] (Ac-RC[Aib]R[dPhe(4-Br)]R[dW]C-NH2; disulfide 2-8 (inferred)) |  |  |  |  | 21 |  | > 4 |  |  |  |  | 0.27 | 0.56 | 0.57 | 
C[C@H]1NC(=O)CSC[C@@H](C(N)=O)NC(=O)[C@H](Cc2c[nH]c3ccccc23)NC(=O)[C@H](CCCNC(=N)N)NC(=O)[C@@H](Cc2ccccc2)NC(=O)[C@H](CCCNC(N)=O)NC1=O [CTX-1643, Thioether-cyclo(D-Ala-Cit-D-Phe-Arg-Trp-Cys)] ({CH2CO}-[dA][Cit][dF]RWC-NH2; thioether N-6) |  |  |  |  |  | 261 |  | 111 | 81 |  | 133 |  |  |  | 
N=C(N)NCCC[C@@H]1NC(=O)CNC(=O)CSC[C@@H](C(N)=O)NC(=O)[C@H](Cc2ccccc2)NC(=O)[C@H](CCCNC(=N)N)NC(=O)[C@@H](Cc2ccccc2)NC1=O [CTX-1654, Thioether-cyclo(Gly-Arg-D-Phe-Arg-Phe-Cys)] ({CH2CO}-GR[dF]RFC-NH2; thioether N-6) |  |  |  |  |  | 0.62 |  | 81 | 43 |  | 5.41 |  |  |  | 
CC(=O)N[C@@H](CCCNC(=N)N)C(=O)N[C@H]1CSSC[C@@H](C(N)=O)NC(=O)[C@H](Cc2c[nH]c3ccccc23)NC(=O)[C@H](CCCNC(N)=O)NC(=O)[C@@H](Cc2ccccc2)NC(=O)[C@H](CCCNC(=N)N)NC(=O)C(C)(C)NC1=O [CTX-1270, Arg-cyclo(Cys-Aib-Arg-D-Phe-Cit-Trp-Cys)] (Ac-RC[Aib]R[dF][Cit]WC-NH2; disulfide 2-8) |  |  |  |  |  | 2.49 |  | 98 | 14 | 52 | 1.88 |  |  |  | 
C[C@H]1NC(=O)CSC[C@@H](C(N)=O)NC(=O)[C@H](Cc2ccccc2)NC(=O)[C@H](CCCNC(=N)N)NC(=O)[C@@H](Cc2ccccc2)NC(=O)[C@H](CCCNC(N)=O)NC1=O [CTX-1658, Thioether-cyclo(D-Ala-Cit-D-Phe-Arg-Phe-Cys)] ({CH2CO}-[dA][Cit][dF]RFC-NH2; thioether N-6) |  |  |  |  |  | Not active |  |  |  | > 10000 | Not active |  |  |  | EC50 (human MC4R; HEK-293 cells stably expressing hMC4R): > 10000 nM
